Data set [1] deals with Swiss Webster mice. In words: Mouse writhing test (acetic acid-induced). The settings on record: for AD50 (nmol/mouse): acetic acid i.p. 5 min after injection; for analgesia: i.v. administration, 1 μmol/kg; for analgesic activity after peripheral administration: oral and i.p. administrations. The format is in vivo.
In data set [2] the test system is Swiss Webster mice. In words: Mouse tail flick assay (radiant heat). Type of data set: in vivo. The settings on record: i.c.v.; for AD50 (nmol/mouse): latency 5 min after injection. On the procedure:
Mouse tail flick assay. […] Briefly, the latency to withdraw the tail from a focused light stimulus was determined using a photocell. […] Baseline latencies were determined before experimental treatment as the mean of two trials and a maximal latency of 12 s was used to minimize tissue damage. Post-treatment latencies were determined 5 min after i.c.v. injection. The antinociceptive effect was expressed as the percentage of the maximum possible effect, as calculated by the formula: % MPE=[(post-injection latency-baseline latency)/(cutoff latency-baseline latency)]×100. […] Group % MPE means were compared using one-way ANOVAs and P≦0.05 was considered significant.

Data set [3] relates to Swiss Webster mice. In words: Mouse rotarod assay. The settings on record: 10 nmol i.c.v. An excerpt: Mouse rotarod assay. The rotarod treadmill (model 7600, UGO Basile, Italy) for mice was used to assess the motor side-effects of antinociceptive agents. […] The apparatus is constituted of a rod with a diameter of 2.5 cm suspended horizontally 50 cm above a plane working area. The rod is turning at a speed of 8 revolutions per min. Circular perpex separators are placed at regular intervals along the rod so that five mice can be tested at the same time. Before administering any compound, all animals are placed on the turning rod for one min in two consecutive rounds. Mice that fall from the rod during these conditioning experiments are excluded from the assay. For the assay, the test compounds were administered i.c.v. and the animals were placed on the turning rod for two min. The % of mice in groups of 10 mice which fell during this latter two min-experiment was recorded as the % of mice showing motor effects. Rotarod assays were conducted at different times (up to 60 min) after the administration of peptides. Statistical calculation were made using Student t-test. Results: Mouse writhing pain assay. […] The lengths of action of the various compounds were evaluated by measuring the time (T1/2) it took after injection of a specific dose of a compound to produce half-maximal effect. […] Analgesic effects of peripheral administrations. […] Mouse tail-flick assay.

Data set [4] concerns Swiss Webster mice. The data set can be described thus: Induction of tolerance to morphine, tail-flick latency. The format is in vivo, mouse. The following applies: for tail-flick latency on repeated dosing: 8 days. On the procedure:
Tail-flick latency to thermal pain was recorded 30 min after the i.p. administration(s) in the morning session of days 1, 3, 6 and 8 as indicated in the figure.

For data set [5] the following is noted: i.t. administration of NMDA, literature; cited from earlier work.
In the next data set the test system is rat. The following applies: literature; cited from earlier work.
For data set [6] the following is noted: sciatic nerve injury, literature; cited from earlier work.
The subject of data set [7] is Swiss Webster mice. The following applies: literature values; cited from earlier work.

“Also recorded” adds a separate entry of the source. Read-outs that look alike come from different tables or passages of the source. Non-standard residues stand in square brackets, D forms with d. Residues, ends and D or L forms follow the SMILES beside them. Phe(4-Cl) = N[C@@H](Cc1ccc(Cl)cc1)C(=O)O

In the case of `N=C(N)NCCC[C@@H](Nc1ccc(C(=O)c2ccc(Cl)cc2)cc1NC(=O)Cc1ccc(O)cc1)C(N)=O` [II-4, N-5-guanidinopentanamide-(2R)-yl-2-N-(p-hydroxyphenylacetyl)-4-(p-chlorobenzoyl)-phenylenediamine], in the data set with Swiss Webster mice [1] (i.c.v.), the “Potency ratio relative to Histogranin (HN)” value was 8.87 and the “AD50 (nmol/mouse)” value stood at 2.61 nmol/mouse. Moreover, in the data set with Swiss Webster mice [2], the “Potency ratio relative to [Ser1]HN” value came to 8.70 and the “AD50 (nmol/mouse)” value is recorded as 13.1 nmol/mouse. Further, the motor effect entry with Swiss Webster mice [3] is listed as “did not cause any motor effect”.

Regarding `N=C(N)NCCC[C@@H](Nc1ccc(C(=O)O)cc1NC(=O)Cc1ccc(O)cc1)C(N)=O` [II-3, N-5-guanidinopentanamide-(2R)-yl-2-N-(p-hydroxyphenylacetyl)-4-carboxy-phenylenediamine], in the data set on Swiss Webster mice [1] (i.c.v.), the “Potency ratio relative to Histogranin (HN)” value is 7.27 and the “AD50 (nmol/mouse)” value came to 3.16 nmol/mouse. Moreover, in the data set on Swiss Webster mice [2], the “Potency ratio relative to [Ser1]HN” value was determined as 3.59 and the “AD50 (nmol/mouse)” value was determined as 31.7 nmol/mouse. Also, in the data set on Swiss Webster mice [3], the motor effect result was “did not cause any motor effect”.

Regarding `N=C(N)NCCC[C@H](Nc1ccccc1NC(=O)Cc1ccc(O)cc1)C(N)=O` [II-1, N-5-guanidinopentanamide-(2S)-yl-2-N-(p-hydroxyphenylacetyl) phenylenediamine], the “potentiation of morphine analgesia” value in the data set on Swiss Webster mice [1] (coadministration i.c.v. of subanalgesic dose (3 nmol) with morphine) was “left shift in the dose-response curve of morphine; also recorded: potentiates the analgesic effects of morphine”. Also, in the data set on Swiss Webster mice [1] (coadministration with morphine 0.5 nmol i.c.v.), the “prolongation of morphine analgesia” value is listed as “slightly prolongated”. In the data set on Swiss Webster mice [1] (i.c.v.), the “Potency ratio relative to Histogranin (HN)” value is 3.54 and the “AD50 (nmol/mouse)” value was 6.5 nmol/mouse. Moreover, in the data set with Swiss Webster mice [1], the analgesia is given as 35% and the “analgesic activity after peripheral administration” value (“analgesic activity” below) is “dose-dependent analgesic activity; also recorded: Significant analgesic activity”. In the data set on Swiss Webster mice [2], the “Potency ratio relative to [Ser1]HN” value was 8.0, the “analgesia in tail-flick assay in words” value is “more potent than HN” and the “AD50 (nmol/mouse)” value was found to be 14.2 nmol/mouse. The “effect on analgesic effect of morphine” value in the data set on Swiss Webster mice [4] (4 mg/kg i.p. 30 min prior to morphine 10 mg/kg) is on record as “potentiated the analgesic effect of morphine”. Besides, in the data set on Swiss Webster mice [4] (4 mg/kg i.p. 30 min prior to morphine 10 mg/kg, days 6 and 8), the “effect on morphine tolerance” value is “inhibits morphine tolerance”. The “tail-flick latency on repeated dosing” value in the data set with Swiss Webster mice [4] (4 mg/kg i.p. twice a day, alone) is “small increase in the tail-flick latency that was significant only on days 1 and 8”. The motor effect entry in the data set on Swiss Webster mice [3] was “did not cause any motor effect”.

“[Ser^1] HN: a chemically stable analog of HN”: in the data set with Swiss Webster mice [2], the “Potency ratio relative to [Ser1]HN” value turned out to be 1 and the “AD50 (nmol/mouse)” value was 114 nmol/mouse. Besides, the hyperalgesia and allodynia result in data set [5] is “attenuated hyperalgesia and allodynia”. Besides, the tonic pain result in the data set with rat was “blocked tonic pain”. Moreover, the hyperalgesia and allodynia result in data set [6] is “attenuated hyperalgesia and allodynia”.

For “Cyclo(-Gly-(p-amino)Phe-Tyr-D-Arg-) [Compound I-4]”, in the data set on Swiss Webster mice [1] (i.c.v.), the “Potency ratio relative to Histogranin (HN)” value is given as 9.14 and the “AD50 (nmol/mouse)” value is on record as 2.52 nmol/mouse. This compound also came in with an analgesia in the data set on Swiss Webster mice [1] of 71%.

Turning to `N=C(N)NCCC[C@H](C(N)=O)n1c(-c2ccc(O)cc2)nc2cc(C(=O)O)ccc21` [III-1], in the data set on Swiss Webster mice [1] (i.c.v.), the “Potency ratio relative to Histogranin (HN)” value was determined as 5.56 and the “AD50 (nmol/mouse)” value was 4.14 nmol/mouse. Further, the “analgesic activity” value in the data set on Swiss Webster mice [1] is listed as “dose-dependent analgesic activity; also recorded: Significant analgesic activity”. In the data set on Swiss Webster mice [2], the “Potency ratio relative to [Ser1]HN” value came to 11.9, the “analgesia in tail-flick assay in words” value was “more potent than HN” and the “AD50 (nmol/mouse)” value is listed as 9.6 nmol/mouse. Further, the motor effect entry with Swiss Webster mice [3] is “did not cause any motor effect”.

In the case of `N=C(N)NCCC[C@H](Nc1ccc(C(F)(F)F)cc1NC(=O)Cc1ccc(O)cc1)C(N)=O` [II-2, N-5-guanidinopentanamide-(2S)-yl-2-N-(p-hydroxyphenylacetyl)-4-trifluorometyl-phenylenediamine], in the data set with Swiss Webster mice [1] (i.c.v.), the “Potency ratio relative to Histogranin (HN)” value was 1.40 and the “AD50 (nmol/mouse)” value amounted to 16.1 nmol/mouse. For the same compound, in the data set on Swiss Webster mice [2], the “Potency ratio relative to [Ser1]HN” value was 1.16 and the “AD50 (nmol/mouse)” value was 98.6 nmol/mouse. Further, the motor effect entry in the data set with Swiss Webster mice [3] is on record as “did not cause any motor effect”.

As for “Cyclo(-Gly-(p-chloro)Phe-Tyr-(p-guanidino)Phe-) [Compound I-3]”, in the data set with Swiss Webster mice [1] (i.c.v.), the “Potency ratio relative to Histogranin (HN)” value is 21.3 and the “AD50 (nmol/mouse)” value is reported as 1.08 nmol/mouse.

On to `CN1CC[C@]23c4c5ccc(O)c4O[C@H]2[C@@H](O)C=C[C@H]3[C@H]1C5` [Morphine, reference compound], for which the “AD50 (nmol/mouse)” value came to 0.72 nmol/mouse in the data set with Swiss Webster mice [1] (i.c.v.) and 1.57 nmol/mouse in the data set on Swiss Webster mice [2]. In addition, in the data set with Swiss Webster mice [4] (10 mg/kg i.p. twice a day), the “tail-flick latency on repeated dosing” value is “tolerance being developed at days 6 and 8”.

As to `C[C@@H](O)[C@@H]1NC(=O)[C@@H](CCCNC(=N)N)NC(=O)[C@H](Cc2ccc(O)cc2)NC(=O)[C@H](Cc2ccc(Cl)cc2)NC1=O` [Compound I-5, Cyclo(-Thr-(p-chloro)Phe-Tyr-D-Arg-)] (cyclo([Phe(4-Cl)]Y[dR]T)), in the data set on Swiss Webster mice [1] (i.c.v.), the “Potency ratio relative to Histogranin (HN)” value is given as 2.14 and the “AD50 (nmol/mouse)” value is 10.7 nmol/mouse. Further, in the data set with Swiss Webster mice [2], the “Potency ratio relative to [Ser1]HN” value was 2.96 and the “AD50 (nmol/mouse)” value was determined as 38.5 nmol/mouse. For the same compound, the motor effect entry in the data set on Swiss Webster mice [3] is reported as “did not cause any motor effect”.

Turning to `CC(C)CC(NC(=O)C(NC(=O)C(CCCNC(=N)N)NC(=O)CNC(=O)C(CCC(N)=O)NC(=O)CN)C(C)O)C(=O)NC(Cc1ccc(O)cc1)C(=O)NCC(=O)NC(Cc1ccccc1)C(=O)O` (stereo not shown) [HN-(7–15), reference compound] (H-GQGRTLYGF-OH; configuration not given here), in the data set with Swiss Webster mice [1] (i.c.v.), the “Potency ratio relative to Histogranin (HN)” value came to 2.71 and the “AD50 (nmol/mouse)” value was found to be 8.5 nmol/mouse. The AD50 with Swiss Webster mice [7] is 8.5 nmol/mouse.

`N=C(N)NCCC[C@H]1NC(=O)[C@H](Cc2ccc(O)cc2)NC(=O)[C@H](Cc2ccc(Cl)cc2)NC(=O)CNC1=O` [Compound I-1, Cyclo(-Gly-(p-chloro)Phe-Tyr-D-Arg-)] (cyclo(G[Phe(4-Cl)]Y[dR])): in the data set on Swiss Webster mice [1] (i.c.v.), the “Potency ratio relative to Histogranin (HN)” value came to 135, the “fold more potent than morphine” value is listed as 3.9 fold and the “AD50 (nmol/mouse)” value was 0.17 nmol/mouse. Further, in the data set on Swiss Webster mice [1], the analgesia amounted to 84% and the “analgesic activity” value is given as “dose-dependent analgesic activity; also recorded: Significant analgesic activity”. In the data set with Swiss Webster mice [2], the “Potency ratio relative to [Ser1]HN” value worked out at 12.5, the “analgesia in tail-flick assay in words” value is “more potent than HN” and the “AD50 (nmol/mouse)” value is 9.1 nmol/mouse. The motor effect result in the data set with Swiss Webster mice [3] is reported as “did not cause any motor effect”.

For “Cyclo(-Gly-(p-chloro)Phe-Tyr-(p-amino)Phe-) [Compound I-2]”, in the data set on Swiss Webster mice [1] (i.c.v.), the “Potency ratio relative to Histogranin (HN)” value was found to be 3.39 and the “AD50 (nmol/mouse)” value amounted to 6.79 nmol/mouse.

The values are drawn from US7183279B2, “Histogranin-like peptides and non-peptides, processes for their preparation and uses thereof” (University of Ottawa, priority 2006, dated 2007).
